The text below walks through data of patent US11066396B2 (priority 2016, dated 2021).

As usually defined, the IC50 is the concentration that inhibits the measured activity by half.

Each structure is given as a SMILES string.

One assay has as its target HDAC8 (Homo sapiens (Human), UniProt Q9BY41). As to conditions: read-out: HDAC8 IC50.
In a further assay the target is HDAC1 (Homo sapiens (Human), UniProt Q13547). As to conditions: read-out: HDAC1 IC50.
Chain of HDAC1 (Q13547 whole entry): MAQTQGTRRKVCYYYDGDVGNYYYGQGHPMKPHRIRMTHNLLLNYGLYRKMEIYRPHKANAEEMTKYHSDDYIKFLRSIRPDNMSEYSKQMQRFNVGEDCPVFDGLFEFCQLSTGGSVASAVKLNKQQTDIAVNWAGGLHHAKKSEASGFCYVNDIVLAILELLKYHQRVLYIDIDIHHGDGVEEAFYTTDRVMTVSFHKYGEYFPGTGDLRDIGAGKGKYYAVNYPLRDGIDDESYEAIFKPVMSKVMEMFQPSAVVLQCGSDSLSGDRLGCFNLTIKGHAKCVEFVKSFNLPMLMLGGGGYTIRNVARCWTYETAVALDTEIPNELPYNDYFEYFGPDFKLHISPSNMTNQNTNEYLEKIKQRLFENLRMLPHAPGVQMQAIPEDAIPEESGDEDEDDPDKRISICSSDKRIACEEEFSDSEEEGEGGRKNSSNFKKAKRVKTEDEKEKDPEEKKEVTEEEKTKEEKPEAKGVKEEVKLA

Chain of HDAC8 (Q9BY41 whole entry): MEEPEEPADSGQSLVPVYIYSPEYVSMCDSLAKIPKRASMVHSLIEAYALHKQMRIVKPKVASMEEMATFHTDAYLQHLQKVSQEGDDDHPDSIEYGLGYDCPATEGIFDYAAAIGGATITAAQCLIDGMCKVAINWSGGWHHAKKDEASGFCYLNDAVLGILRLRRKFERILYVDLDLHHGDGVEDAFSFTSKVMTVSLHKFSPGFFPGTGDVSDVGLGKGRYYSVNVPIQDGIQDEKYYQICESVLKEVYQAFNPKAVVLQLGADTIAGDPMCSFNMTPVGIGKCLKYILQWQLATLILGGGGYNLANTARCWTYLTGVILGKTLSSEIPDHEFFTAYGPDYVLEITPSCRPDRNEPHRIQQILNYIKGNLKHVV

On to `O=C1NCCc2ccccc2C1NCc1ccc(-c2noc(C(F)(F)F)n2)cn1` (racemic) [Example 373, 1-[({5-[5-(trifluoromethyl)-1,2,4-oxadiazol-3-yl]pyridin-2-yl}methyl)amino]-1,3,4,5-tetrahydro-2H-3-benzazepin-2-one], for which the IC50 on HDAC8 stood at 2800 nM; at HDAC1 it was 1300 nM.
Regarding `O=C1CC[C@@H](c2nc(-c3ccncc3)no2)N1c1ccc(-c2noc(C(F)(F)F)n2)cc1` [Example 114, (S)-5-(3-(pyridin-4-yl)-1,2,4-oxadiazol-5-yl)-1-(4-(5-(trifluoromethyl)-1,2,4-oxadiazol-3-yl)phenyl)pyrrolidin-2-one], the 50% inhibitory concentration (IC50) at HDAC8 stood at 270 nM; at HDAC1 it was 82 nM.
In the same order, the values of `FC(F)(F)c1nc(-c2ccc(CNc3cnsc3)nc2)no1` [Example 433, N-({5-[5-(trifluoromethyl)-1,2,4-oxadiazol-3-yl]pyridin-2-yl}methyl)isothiazol-4-amine] are 900 nM and 890 nM.
In the case of `FC(F)(F)c1nc(-c2ccc(N3CCOC[C@@H]3c3ccccc3)nc2)no1` [Example 141, (S)-3-phenyl-4-(5-(5-(trifluoromethyl)-1,2,4-oxadiazol-3-yl)pyridin-2-yl)morpholine], the IC50 turned out to be 1800 nM at HDAC8 and 350 nM on HDAC1.
In the same order, the values of `OCc1cc(NCc2ccc(-c3noc(C(F)(F)F)n3)cn2)ccc1F` [Example 361, {2-fluoro-5-[({5-[5-(trifluoromethyl)-1,2,4-oxadiazol-3-yl]pyridin-2-yl}methyl)amino]phenyl}methanol] are 1600 nM and 520 nM.
For `CC1(C)CCCN1C(=O)[C@@H]1CCC(=O)N1c1cc(F)c(-c2noc(C(F)(F)F)n2)cc1F` [Example 339, (5S)-1-{2,5-difluoro-4-[5-(trifluoromethyl)-1,2,4-oxadiazol-3-yl]phenyl}-5-[(2,2-dimethylpyrrolidin-1-yl)carbonyl]pyrrolidin-2-one], the IC50 at HDAC8 was 45000 nM; at HDAC1, 13000 nM.
On to `COc1ccc(NCc2ccc(-c3noc(C(F)(F)F)n3)cn2)cn1` [Example 363, 6-methoxy-N-({5-[5-(trifluoromethyl)-1,2,4-oxadiazol-3-yl]pyridin-2-yl}methyl)pyridin-3-amine], for which the figures for the IC50 at HDAC8 and on HDAC1 were 3400 nM and 520 nM, respectively.
In the same order, the values of `O=C1CCC(NCc2ccc(-c3noc(C(F)(F)F)n3)cn2)c2ccccc2N1` (racemic) [Example 374, 5-[({5-[5-(trifluoromethyl)-1,2,4-oxadiazol-3-yl]pyridin-2-yl}methyl)amino]-1,3,4,5-tetrahydro-2H-1-benzazepin-2-one] are 6900 nM and 3200 nM.
The corresponding values for `Cc1nnc(CC(=O)N(Cc2ccc(-c3noc(C(F)(F)F)n3)cn2)c2cccc(F)c2)s1` [Example 395, N-(3-fluorophenyl)-2-(5-methyl-1,3,4-thiadiazol-2-yl)-N-({5-[5-(trifluoromethyl)-1,2,4-oxadiazol-3-yl]pyridin-2-yl}methyl)acetamide] are 1300 nM and 330 nM.
In the same order, the values of `CC(C(=O)N(Cc1ccc(-c2noc(C(F)(F)F)n2)cc1)c1cccc(C(F)(F)F)c1)n1cncn1` (racemic) [Example 66, 2-(1H-1,2,4-triazol-1-yl)-N-(4-(5-(trifluoromethyl)-1,2,4-oxadiazol-3-yl)benzyl)-N-(3-(trifluoromethyl)phenyl)propanamide] are 1900 nM and 720 nM.
Take `O=C(Cn1ncccc1=O)N(Cc1ccc(-c2noc(C(F)(F)F)n2)cc1)c1cccc(C(F)(F)F)c1` [Example 70, 2-(6-oxopyridazin-1(6H)-yl)-N-(4-(5-(trifluoromethyl)-1,2,4-oxadiazol-3-yl)benzyl)-N-(3-(trifluoromethyl)phenyl)acetamide]: the IC50 at HDAC8 came out at 2200 nM; at HDAC1, 960 nM.
The corresponding values for `O=C1CCC(c2ccc(Cl)cc2)N1c1ccc(-c2noc(C(F)(F)F)n2)cc1F` (stereo not drawn) [Example 119, 5-(4-chlorophenyl)-1-(2-fluoro-4-(5-(trifluoromethyl)-1,2,4-oxadiazol-3-yl)phenyl)pyrrolidin-2-one] are 1300 nM and 720 nM.
With `Cc1ncc(CC(=O)N(Cc2ccc(-c3noc(C(F)(F)F)n3)cn2)c2cccc(F)c2)s1` [Example 394, N-(3-fluorophenyl)-2-(2-methyl-1,3-thiazol-5-yl)-N-({5-[5-(trifluoromethyl)-1,2,4-oxadiazol-3-yl]pyridin-2-yl}methyl)acetamide], the IC50 at HDAC8 came to 2400 nM; at HDAC1, 730 nM.
The corresponding values for `CC1(Cc2ccc(-c3noc(C(F)(F)F)n3)cc2)C(=O)Nc2ccc(F)cc21` (racemic) [Example 346, 5-fluoro-3-methyl-3-{4-[5-(trifluoromethyl)-1,2,4-oxadiazol-3-yl]benzyl}-1,3-dihydro-2H-indol-2-one] are 15000 nM and 1200 nM.
The corresponding values for `O=C1COC[C@@H](c2ccccc2)N1c1ccc(-c2noc(C(F)(F)F)n2)cc1F` [Example 161, (R)-4-(2-fluoro-4-(5-(trifluoromethyl)-1,2,4-oxadiazol-3-yl)phenyl)-5-phenylmorpholin-3-one] are 2100 nM and 390 nM.
The corresponding values for `O=C1COC[C@@H](c2ccccc2)N1c1cnc(-c2noc(C(F)(F)F)n2)cn1` [Example 164, (R)-5-phenyl-4-(5-(5-(trifluoromethyl)-1,2,4-oxadiazol-3-yl)pyrazin-2-yl)morpholin-3-one] are 6100 nM and 2900 nM.
On to `O=C1CCC(c2cccc(Cl)c2)N1c1ccc(-c2noc(C(F)(F)F)n2)cc1F` (racemic) [Example 116, 5-(3-chlorophenyl)-1-(2-fluoro-4-(5-(trifluoromethyl)-1,2,4-oxadiazol-3-yl)phenyl)pyrrolidin-2-one], for which the IC50 at HDAC8 worked out at 14000 nM; at HDAC1 it was 1600 nM.
The corresponding values for `O=C1CCCC(c2ccccc2)N1c1ccc(-c2noc(C(F)(F)F)n2)cn1` (stereo not drawn) [Example 128, 6-phenyl-1-(5-(5-(trifluoromethyl)-1,2,4-oxadiazol-3-yl)pyridin-2-yl)piperidin-2-one] are 5100 nM and 2900 nM.
The corresponding values for `CN1CCC(C(=O)N(Cc2ccc(-c3noc(C(F)(F)F)n3)cn2)c2cccc(F)c2)C1` (racemic) [Example 403, N-(3-fluorophenyl)-1-methyl-N-({5-[5-(trifluoromethyl)-1,2,4-oxadiazol-3-yl]pyridin-2-yl}methyl)pyrrolidine-3-carboxamide] are 2000 nM and 250 nM.
For `O=C(Cc1cnccn1)N(Cc1ccc(-c2noc(C(F)(F)F)n2)cc1)c1cccc(C(F)(F)F)c1` [Example 94, 2-(pyrazin-2-yl)-N-(4-(5-(trifluoromethyl)-1,2,4-oxadiazol-3-yl)benzyl)-N-(3-(trifluoromethyl)phenyl)acetamide], the half-maximal inhibitory concentration (IC50) on HDAC8 amounted to 2300 nM; at HDAC1 it was 1400 nM.
The corresponding values for `Cc1nc2c(c(=O)[nH]1)CC(NCc1ccc(-c3noc(C(F)(F)F)n3)cc1)CC2` (racemic) [Example 350, 2-methyl-6-[({4-[5-(trifluoromethyl)-1,2,4-oxadiazol-3-yl]phenyl}methyl)amino]-5,6,7,8-tetrahydroquinazolin-4(3H)-one] are 250 nM and 1200 nM.
